Assay results from patent US9561249B2, “Pharmaceutical formulations of nitrite and uses thereof” (TheraVasc Inc., priority 2013, dated 2017).
Like-named read-outs stand apart in the source and are kept apart here.

System: subjects with PAD
Details: 40-mg group
Experimental: Supine vital signs were measured at the Screening Visit. The subject rested in a supine position for a minimum of 3 minutes prior to obtaining vital sign measurements. Vital signs included BP and pulse rate. Postural vital signs, including both supine and standing measurements of blood pressure and pulse rate, were recorded at all study visits following the first dose of IP administration. Measurements were performed as follows: (1) the subject rested in a supine position for a minimum of 3 minutes, (2) vital signs (BP and pulse rate) were measured while the subject was supine, (3) the subject assumed a standing position for a minimum of 5 minutes, and (4) vital signs (BP and pulse rate) were measured while the subject was standing.

[1] = Visit 8 (6 days after dose doubling)

O=NO [sodium nitrite]
Blood Pressure diastolic, Supine (Mean) (Screening (baseline)): 75.8 | Blood Pressure systolic, Supine (Mean) (Screening (baseline)): 136.8 | Pulse, Supine (Mean) (Screening (baseline)): 71.4 | Blood Pressure diastolic, Standing (Mean) (Visit 1 (Day 0)): 73.1 | Blood Pressure diastolic, Supine (Mean) (Visit 1 (Day 0)): 72.3 | Blood Pressure systolic, Standing (Mean) (Visit 1 (Day 0)): 129.5 | Blood Pressure systolic, Supine (Mean) (Visit 1 (Day 0)): 129.7 | Diastolic BP, Orthostatic Changes (Visit 1 (Day 0)): 0.8 | Pulse, Orthostatic Changes (Visit 1 (Day 0)): 1.8 | Pulse, Standing (Mean) (Visit 1 (Day 0)): 75.8 | Pulse, Supine (Mean) (Visit 1 (Day 0)): 74.1 | Systolic BP, Orthostatic Changes (Visit 1 (Day 0)): −0.3 | Blood Pressure diastolic, Standing (Mean) (Visit 2 (Day 1)): 72.6 | Blood Pressure diastolic, Supine (Mean) (Visit 2 (Day 1)): 70.5 | Blood Pressure systolic, Standing (Mean) (Visit 2 (Day 1)): 128.3 | Blood Pressure systolic, Supine (Mean) (Visit 2 (Day 1)): 128.0 | Diastolic BP, Orthostatic Changes (Visit 2 (Day 1)): 2.1 | Pulse, Orthostatic Changes (Visit 2 (Day 1)): 4.5 | Pulse, Standing (Mean) (Visit 2 (Day 1)): 78.6 | Pulse, Supine (Mean) (Visit 2 (Day 1)): 74.1 | Systolic BP, Orthostatic Changes (Visit 2 (Day 1)): 0.3 | Blood Pressure diastolic, Standing (Mean) (Visit 3 (Day 4)): 73.1 | Blood Pressure diastolic, Supine (Mean) (Visit 3 (Day 4)): 72.5 | Blood Pressure systolic, Standing (Mean) (Visit 3 (Day 4)): 129.4 | Blood Pressure systolic, Supine (Mean) (Visit 3 (Day 4)): 129.8 | Diastolic BP, Orthostatic Changes (Visit 3 (Day 4)): 0.6 | Pulse, Orthostatic Changes (Visit 3 (Day 4)): 2.0 | Pulse, Standing (Mean) (Visit 3 (Day 4)): 76.7 | Pulse, Supine (Mean) (Visit 3 (Day 4)): 74.7 | Systolic BP, Orthostatic Changes (Visit 3 (Day 4)): −0.4 | Blood Pressure diastolic, Standing (Mean) (Visit 4 (Day 14)): 71.0 | Blood Pressure diastolic, Supine (Mean) (Visit 4 (Day 14)): 71.1 | Blood Pressure systolic, Standing (Mean) (Visit 4 (Day 14)): 124.9 | Blood Pressure systolic, Supine (Mean) (Visit 4 (Day 14)): 128.4 | Diastolic BP, Orthostatic Changes (Visit 4 (Day 14)): −0.1 | Pulse, Orthostatic Changes (Visit 4 (Day 14)): 3.9 | Pulse, Standing (Mean) (Visit 4 (Day 14)): 75.6 | Pulse, Supine (Mean) (Visit 4 (Day 14)): 71.7 | Systolic BP, Orthostatic Changes (Visit 4 (Day 14)): −3.4 | Blood Pressure diastolic, Standing (Mean) (Visit 5 (Day 28)): 71.6 | Blood Pressure diastolic, Supine (Mean) (Visit 5 (Day 28)): 72.0 | Blood Pressure systolic, Standing (Mean) (Visit 5 (Day 28)): 124.3 | Blood Pressure systolic, Supine (Mean) (Visit 5 (Day 28)): 124.1 | Diastolic BP, Orthostatic Changes (Visit 5 (Day 28)): −0.4 | Pulse, Orthostatic Changes (Visit 5 (Day 28)): 3.8 | Pulse, Standing (Mean) (Visit 5 (Day 28)): 76.6 | Pulse, Supine (Mean) (Visit 5 (Day 28)): 72.7 | Systolic BP, Orthostatic Changes (Visit 5 (Day 28)): 0.3 | Blood Pressure diastolic, Standing (Mean) (Visit 6 (Day 70)): 73.2 | Blood Pressure diastolic, Supine (Mean) (Visit 6 (Day 70)): 73.7 | Blood Pressure systolic, Standing (Mean) (Visit 6 (Day 70)): 127.6 | Blood Pressure systolic, Supine (Mean) (Visit 6 (Day 70)): 127.3 | Diastolic BP, Orthostatic Changes (Visit 6 (Day 70)): −0.5 | Pulse, Orthostatic Changes (Visit 6 (Day 70)): 3.5 | Pulse, Standing (Mean) (Visit 6 (Day 70)): 73.9 | Pulse, Supine (Mean) (Visit 6 (Day 70)): 7034 | Systolic BP, Orthostatic Changes (Visit 6 (Day 70)): 0.3 | Blood Pressure diastolic, Standing (Mean) (Visit 7 (Day 71, dose doubled)): 73.2 | Blood Pressure diastolic, Supine (Mean) (Visit 7 (Day 71, dose doubled)): 71.3 | Blood Pressure systolic, Standing (Mean) (Visit 7 (Day 71, dose doubled)): 122.2 | Blood Pressure systolic, Supine (Mean) (Visit 7 (Day 71, dose doubled)): 126.7 | Diastolic BP, Orthostatic Changes (Visit 7 (Day 71, dose doubled)): 1.9 | Pulse, Orthostatic Changes (Visit 7 (Day 71, dose doubled)): 3.2 | Pulse, Standing (Mean) (Visit 7 (Day 71, dose doubled)): 76.3 | Pulse, Supine (Mean) (Visit 7 (Day 71, dose doubled)): 73.1 | Systolic BP, Orthostatic Changes (Visit 7 (Day 71, dose doubled)): −4.5 | Blood Pressure diastolic, Standing (Mean) [1]: 68.7 | Blood Pressure diastolic, Supine (Mean) [1]: 72.2 | Blood Pressure systolic, Standing (Mean) [1]: 123.1 | Blood Pressure systolic, Supine (Mean) [1]: 130.0 | Diastolic BP, Orthostatic Changes [1]: −3.5 | Pulse, Orthostatic Changes [1]: 4.1 | Pulse, Standing (Mean) [1]: 74.3 | Pulse, Supine (Mean) [1]: 70.2 | Systolic BP, Orthostatic Changes [1]: −6.9
